Counter-ions that a name gives are not always drawn.
Experiments:
[1] = target: T1, WEE1 (Homo sapiens, UniProt P30291); experiment: Selectivity versus WEE1 assay (ADP-Glo enzymatic assay); format: biochemical; settings: for IC50: ADP-Glo; for PKMYT1 vs. WEE1 selectivity: fold difference in selectivity for PKMYT1 over WEE1
T1 construct: purchased Thermo Fisher PR7373A
Outline: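 WEE1 at 15 nM final in 50 mM HEPES pH 7.5, 10 mM MgCl2, 1 mM EGTA, 0.01% Brij-35, 1% DMSO; reaction started with 30 µM ATP, 60 min at 26 °C. ADP-Glo luminescence; IC50 from dose-response curves, replicates within 3-fold and r2 >0.9.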

[2] = target: T2, Human PKMYT1 (Homo sapiens, UniProt Q99640); experiment: PKMYT1 biochemical ADP-Glo enzymatic assay; settings: ADP-Glo
T2 construct: Human PKMYT1 75-362 was cloned as a TEV cleavable 6xHis fusion; 6xHis (TEV cleavable) (cleaved yes); made in house; host or cells: bacterial cells
T2 sequence (Q99640 75-362): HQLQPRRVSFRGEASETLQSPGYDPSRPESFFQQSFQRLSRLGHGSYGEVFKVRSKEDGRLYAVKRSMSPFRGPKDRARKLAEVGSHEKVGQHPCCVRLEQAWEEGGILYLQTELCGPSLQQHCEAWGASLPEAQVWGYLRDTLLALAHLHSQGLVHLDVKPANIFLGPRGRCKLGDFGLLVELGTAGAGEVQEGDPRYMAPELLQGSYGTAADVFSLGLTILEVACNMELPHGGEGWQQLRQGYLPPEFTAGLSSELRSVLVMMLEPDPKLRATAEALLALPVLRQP
Outline: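 Purified untagged human PKMYT1 75-362 at 15 nM final was tested in HEPES pH 7.5 with MgCl2, EGTA, Brij-35 and 1% DMSO. Intrinsic ATPase activity was measured with 500 uM ATP over 60 min at 26° C. ADP-Glo luminescence was read and IC50 fitted from 10-point, 3-fold dilution curves.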

[3] = 15 nM WEE1, 60 minutes at 26° C., banded
[4] = banded, ">N" = at least in this band but could be higher
[5] = 15 nM PKMYT1 kinase domain, 500 µM ATP, 60 minutes at 26° C., banded
[6] = PKMYT1 kinase domain 15 nM, banded values

T1 sequence (P30291 whole entry): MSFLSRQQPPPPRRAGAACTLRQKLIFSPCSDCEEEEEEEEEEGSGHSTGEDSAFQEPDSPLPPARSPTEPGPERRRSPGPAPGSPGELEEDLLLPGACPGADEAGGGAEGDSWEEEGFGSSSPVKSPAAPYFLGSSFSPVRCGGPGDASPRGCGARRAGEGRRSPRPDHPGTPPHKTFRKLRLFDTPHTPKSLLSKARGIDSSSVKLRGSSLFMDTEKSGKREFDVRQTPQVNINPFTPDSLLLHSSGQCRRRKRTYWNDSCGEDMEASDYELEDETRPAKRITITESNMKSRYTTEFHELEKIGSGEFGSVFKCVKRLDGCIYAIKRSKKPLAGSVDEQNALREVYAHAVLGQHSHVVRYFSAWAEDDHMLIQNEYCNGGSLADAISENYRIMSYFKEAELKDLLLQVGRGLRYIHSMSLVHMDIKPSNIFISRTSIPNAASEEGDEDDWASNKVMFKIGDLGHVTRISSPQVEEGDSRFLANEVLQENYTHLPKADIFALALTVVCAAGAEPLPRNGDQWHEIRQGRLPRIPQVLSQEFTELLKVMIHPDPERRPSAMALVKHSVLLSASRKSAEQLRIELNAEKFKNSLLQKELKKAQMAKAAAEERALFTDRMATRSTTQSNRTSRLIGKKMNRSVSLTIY

Row | IC50 [1, 3] [nM] | PKMYT1 vs. WEE1 selectivity [1, 4] | IC50 [2, 5] [nM] | IC50 ([1]; WEE1 15 nM, banded values) [nM] | PKMYT1 vs. WEE1 selectivity ([1]; banded) | IC50 [2, 6] [nM] | Structure (SMILES)
1 | > 11000 | Y (1000-5000 fold) | < 50 |  |  |  | Cc1cn(CC(=O)O)nc1Nc1ncc(C(=O)Nc2c(C)ccc(O)c2C)s1 [BAA-125, 2-[3-[[5-[(3-hydroxy-2,6-dimethyl-phenyl)carbamoyl]thiazol-2-yl]amino]-4-methyl-pyrazol-1-yl]acetic acid]
2 | > 11000 | Y (1000-5000 fold) | 50 to 1000 |  |  |  | Cc1ccc(O)c(C)c1NC(=O)c1cnc(Nc2ccc(C(F)(F)F)cn2)s1 [BAA-280, N-(3-hydroxy-2,6-dimethylphenyl)-2-((5-(trifluoromethyl)pyridin-2-yl)amino)thiazole-5-carboxamide]
3 | > 11000 | Y (1000-5000 fold) | < 50 |  |  |  | Cc1ccc(O)c(C)c1NC(=O)c1cnc(Nc2cc(C3CC3)n(C)n2)s1 [BAA-245, 2-((5-cyclopropyl-1-methyl-1H-pyrazol-3-yl)amino)-N-(3-hydroxy-2,6-dimethylphenyl)thiazole-5-carboxamide]
4 | > 11000 | X (100-<1000 fold) | 50 to 1000 |  |  |  | CNC(=O)c1cc(Nc2ncc(C(=O)Nc3c(C)ccc(O)c3C)s2)nn1C [BAA-119, N-(3-hydroxy-2,6-dimethyl-phenyl)-2-[[1-methyl-5-(methylcarbamoyl)pyrazol-3-yl]amino]thiazole-5-carboxamide]
5 | > 11000 | X (100-<1000 fold) | 50 to 1000 |  |  |  | Cc1ccc(O)c(C)c1NC(=O)c1cnc(Nc2ccc3cc(Br)ccc3n2)s1 [BAA-300, 2-((6-bromoquinolin-2-yl)amino)-N-(3-hydroxy-2,6-dimethylphenyl)thiazole-5-carboxamide]
6 | 1000 to 11000 | X (100-<1000 fold) | < 50 |  |  |  | Cc1ccc(O)c(C)c1NC(=O)c1cnc(Nc2c3ccncc3nn2C)s1 [BAA-244, N-(3-hydroxy-2,6-dimethylphenyl)-2-((2-methyl-2H-pyrazolo[3,4-c]pyridin-3-yl)amino)thiazole-5-carboxamide]
7 |  |  |  | > 11000 | X (100-<1000 fold) | < 50 | Cc1ccc(O)c(C)c1NC(=O)c1cnc(Nc2cccc3ncsc23)s1 [BAA-485, 2-(benzo[d]thiazol-7-ylamino)-N-(3-hydroxy-2,6-dimethylphenyl)thiazole-5-carboxamide]
8 |  |  |  | > 11000 | X (100-<1000 fold) | 50 to 1000 | Cc1ccc(O)c(C)c1NC(=O)c1cnc(Nc2nc(Cl)ccc2C(F)(F)F)s1 [BAA-405, 2-((6-chloro-3-(trifluoromethyl)pyridin-2-yl)amino)-N-(3-hydroxy-2,6-dimethylphenyl)thiazole-5-carboxamide]

Further lines, the compound ahead of its results:

Row | Structure (SMILES) | IC50 [1, 3] [nM] | PKMYT1 vs. WEE1 selectivity [1, 4] | IC50 [2, 5] [nM] | IC50 ([1]; WEE1 15 nM, banded values) [nM] | PKMYT1 vs. WEE1 selectivity ([1]; banded) | IC50 [2, 6] [nM]
9 | Cc1ccc(O)c(C)c1NC(=O)c1cnc(Nc2ccn(CC(=O)N3CCN(C(=O)CC(C)C)CC3)n2)s1 [BAA-198, N-(3-hydroxy-2,6-dimethyl-phenyl)-2-[[1-[2-[4-(3-methylbutanoyl)piperazin-1-yl]-2-oxo-ethyl]pyrazol-3-yl]amino]thiazole-5-carboxamide] | > 11000 | Y (1000-5000 fold) | < 50 |  |  | 
10 | Cc1ccc(O)c(C)c1NC(=O)c1cnc(Nc2nn(-c3ccccc3)cc2C#N)s1 [BAA-389, 2-((4-cyano-1-phenyl-1H-pyrazol-3-yl)amino)-N-(3-hydroxy-2,6-dimethylphenyl)thiazole-5-carboxamide] | > 11000 | Y (1000-5000 fold) | < 50 |  |  | 
11 | Cc1cn(CC(=O)N2CCN(C)CC2)nc1Nc1ncc(C(=O)Nc2c(C)ccc(O)c2C)s1 [BAA-205, N-(3-hydroxy-2,6-dimethyl-phenyl)-2-[[4-methyl-1-[2-(4-methylpiperazin-1-yl)-2-oxo-ethyl]pyrazol-3-yl]amino]thiazole-5-carboxamide] | > 11000 | Y (1000-5000 fold) | < 50 |  |  | 
12 | Cc1ccc(O)c(C)c1NC(=O)c1cnc(Nc2ccn(CC(=O)N3C[C@@H](C)N[C@@H](C)C3)n2)s1 [BAA-227, 2-((1-(2-((3R,5S)-3,5-dimethylpiperazin-1-yl)-2-oxoethyl)-1H-pyrazol-3-yl)amino)-N-(3-hydroxy-2,6-dimethylphenyl)thiazole-5-carboxamide] | > 11000 | X (100-<1000 fold) | < 50 |  |  | 
13 | Cc1ccc(O)c(C)c1NC(=O)c1cnc(Nc2ccn(CC(=O)NCCN3CCOCC3)n2)s1 [BAA-035] | > 11000 | X (100-<1000 fold) | 50 to 1000 |  |  | 
14 | Cc1ccc(O)c(C)c1NC(=O)c1cnc(Nc2ccn([C@H]3CCNC3)n2)s1 [BAA-057, N-(3-hydroxy-2,6-dimethyl-phenyl)-2-[1-[(3S)-pyrrolidin-3-yl]pyrazol-3-yllamino]thiazole-5-carboxamide (hydrochloride)] | > 11000 | >W (10-<100 fold) | 1000 to 11000 |  |  | 
15 | Cc1ccc(O)c(C)c1NC(=O)c1cnc(Nc2ccn(CC(=O)N3CCC4(CC3)CCN(C(=O)OC(C)(C)C)C4)n2)s1 [BAA-155, tert-butyl 8-[2-[3-[5-[(3-hydroxy-2,6-dimethyl-phenyl)carbamoyl]thiazol-2-ylamino]pyrazol-1-yl]acetyl]-2,8-diazaspiro[4.5]decane-2-carboxylate] | > 11000 | X (100-<1000 fold) | < 50 |  |  | 
16 | Cc1ccc(O)c(C)c1NC(=O)c1cnc(Nc2ccn([C@@H]3CCN(C(=O)Cc4ccc(N(C)C)cc4)C3)n2)s1 [BAA-105, 2-[[1-[(3R)-1-[2-[4-(dimethylamino)phenyl]acetyl]pyrrolidin-3-yl]pyrazol-3-yl]amino]-N-(3-hydroxy-2,6-dimethyl-phenyl) thiazole-5-carboxamide] | > 11000 | >Y (1000-5000 fold) | 50 to 1000 |  |  | 
17 | Cc1ccc(O)c(C)c1NC(=O)c1cnc(Nc2cc(C)n(C(C)C(=O)N3CCN(C)CC3)n2)s1 (stereo not drawn) [BAA-511, N-(3-hydroxy-2,6-dimethylphenyl)-2-((5-methyl-1-(1-(4-methylpiperazin-1-yl)-1-oxopropan-2-yl)-1H-pyrazol-3-yl)amino)thiazole-5-carboxamide] |  |  |  | > 11000 | W (10-<100 fold) | 50 to 1000
18 | Cc1ccc(O)c(C)c1NC(=O)c1cnc(Nc2ccn([C@@H]3CCN(C(=O)CC(C)C)C3)n2)s1 [BAA-096, N-(3-hydroxy-2,6-dimethyl-phenyl)-2-[[1-[(3R)-1-(3-methylbutanoyl)pyrrolidin-3-yl]pyrazol-3-yl]amino]thiazole-5-carboxamide] | > 11000 | >Y (1000-5000 fold) | 50 to 1000 |  |  | 
19 | Cc1ccc(O)c(C)c1NC(=O)c1cnc(Nc2ccn([C@@H]3CCN(C(=O)Cc4ccc(N)cc4)C3)n2)s1 [BAA-106, 2-[[1-[(3R)-1-[2-(4-Aminophenyl)acetyl]pyrrolidin-3-yl]pyrazol-3-yl]amino]-N-(3-hydroxy-2,6-dimethyl-phenyl)thiazole-5-carboxamide] | > 11000 | >Y (1000-5000 fold) | < 50 |  |  | 
20 | Cc1ccc(O)c(C)c1NC(=O)c1cnc(Nc2ccn(CC3CCOC3)n2)s1 (stereo not drawn) [BAA-032, N-(3-hydroxy-2,6-dimethyl-phenyl)-2-[[1-(tetrahydrofuran-3-ylmethyl)pyrazol-3-yl]amino]thiazole-5-carboxamide] | 1000 to 11000 | W (10-<100 fold) | 50 to 1000 |  |  | 
